Measurements as given in PubChem BioAssay (NCI).
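Interpolation was linear, between the two tested concentrations surrounding the appropriate level; five concentrations were tested over 48 hours in 96-well plates. TGI denotes the concentration required for complete inhibition of growth.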

How the values were obtained:
Test in all cases: NCI tumour cell line growth inhibition, 48 h
DLD-1 colon = test system: DLD-1 colon
DMS 114 small cell lung = test system: DMS 114 small cell lung
DMS 273 small cell lung = test system: DMS 273 small cell lung
HCT-15 colon = test system: HCT-15 colon
HOP-18 NSCLC = test system: HOP-18 NSCLC
HOP-92 NSCLC = test system: HOP-92 NSCLC
KM20L2 colon = test system: KM20L2 colon
LXFL 529 NSCLC = test system: LXFL 529 NSCLC
MALME-3M melanoma = test system: MALME-3M melanoma
NCI-H460 lung = test system: NCI-H460 lung
OVCAR-4 ovarian = test system: OVCAR-4 ovarian
OVCAR-8 ovarian = test system: OVCAR-8 ovarian
RPMI-8226 leukemia = test system: RPMI-8226 leukemia
RXF-631 renal = test system: RXF-631 renal
SK-MEL-28 melanoma = test system: SK-MEL-28 melanoma
SNB-78 CNS = test system: SNB-78 CNS
UACC-62 melanoma = test system: UACC-62 melanoma
M19-MEL melanoma = test system: M19-MEL melanoma
XF 498 CNS = test system: XF 498 CNS

Structure (SMILES)	TGI (DLD-1 colon)	TGI (DMS 114 small cell lung)	TGI (DMS 273 small cell lung)	TGI (HCT-15 colon)	TGI (HOP-18 NSCLC)	TGI (HOP-92 NSCLC)	TGI (KM20L2 colon)	TGI (LXFL 529 NSCLC)	TGI (MALME-3M melanoma)	TGI (NCI-H460 lung)	TGI (OVCAR-4 ovarian)	TGI (OVCAR-8 ovarian)	TGI (RPMI-8226 leukemia)	TGI (RXF-631 renal)	TGI (SK-MEL-28 melanoma)	TGI (SNB-78 CNS)	TGI (UACC-62 melanoma)	TGI (M19-MEL melanoma)	TGI (XF 498 CNS)
Cn1c2cc(O)cc(O)c2c(=O)c2c([N+](=O)[O-])cccc21	> 100 µM	> 100 µM	> 100 µM	> 100 µM	> 100 µM	> 100 µM	> 100 µM	> 100 µM	> 100 µM	> 100 µM	> 100 µM	> 100 µM	> 100 µM	> 100 µM	> 100 µM	> 100 µM	> 100 µM	–	–
COC(=O)c1ccc(Cc2ccc(C(=O)OC)o2)o1	> 378 µM	–	> 378 µM	> 378 µM	> 378 µM	> 378 µM	> 378 µM	> 378 µM	> 378 µM	> 378 µM	–	> 378 µM	> 378 µM	> 378 µM	> 378 µM	–	> 378 µM	> 378 µM	–
COC(=O)[C@@]12OC[C@]34C([C@@H](O)C1O)[C@@]1(C)CC(=O)C(OC(=O)/C=C(/c5ccccc5)C(F)(F)F)=C(C)C1C[C@H]3OC(=O)[C@H](O)[C@H]42 (stereo partly drawn)	31.9 µM	22.3 µM	18 µM	> 50 µM	> 50 µM	43.7 µM	36.6 µM	> 50 µM	28.9 µM	23 µM	> 50 µM	> 50 µM	13.9 µM	–	27 µM	> 50 µM	11.7 µM	> 50 µM	33 µM
Cc1ccc(O)c(C(=O)CCCC(=O)c2cc(C)ccc2O)c1	> 100 µM	> 100 µM	> 100 µM	> 100 µM	> 100 µM	> 100 µM	> 100 µM	> 100 µM	> 100 µM	> 100 µM	> 100 µM	> 100 µM	> 100 µM	–	> 100 µM	> 100 µM	> 100 µM	> 100 µM	> 100 µM
COC(=O)C(Cc1nc2ccc(Cl)cc2[nH]c1=O)/C(=N/NC(N)=O)C(=O)Nc1ccc(Cl)cc1 (stereo not drawn)	–	> 100 µM	> 100 µM	> 100 µM	> 100 µM	> 100 µM	> 100 µM	> 100 µM	> 100 µM	> 100 µM	> 100 µM	> 100 µM	> 100 µM	> 100 µM	> 100 µM	> 100 µM	> 100 µM	> 100 µM	> 100 µM
COc1ccc(C(=O)/C=C/c2ccc(OCC(=O)N3CCN(c4ccccc4)CC3)cc2)cc1	> 100 µM	> 100 µM	> 100 µM	> 100 µM	> 100 µM	51.3 µM	> 100 µM	> 100 µM	> 100 µM	> 100 µM	> 100 µM	> 100 µM	> 77.8 µM	–	> 100 µM	54.8 µM	> 100 µM	> 100 µM	> 93.9 µM
O=c1cc(-c2ccc(Cl)cc2)oc2cc(OCCCOc3ccc4c(=O)cc(-c5ccc(Cl)cc5)oc4c3)ccc12	> 100 µM	> 100 µM	> 100 µM	> 100 µM	> 100 µM	> 100 µM	> 100 µM	> 100 µM	> 100 µM	> 100 µM	> 100 µM	> 100 µM	> 100 µM	> 100 µM	> 100 µM	> 100 µM	> 100 µM	> 100 µM	> 100 µM
